Test results taken from patent publication US20260034158A1, “METHODS OF TREATING CANCER OF THE CENTRAL NERVOUS SYSTEM COMPRISING 5-ETHYNYL-2'-DEOXYURIDINE” (The University of North Carolina at Chapel Hill, priority 2022, published 2026).

Key:
[1] = system: nucleotide excision repair in HeLa cells; experiment: In vivo excision assay with TFIIH antibody immunoprecipitation; type: cell-based, human; conditions: for substrate for excision repair: when incorporated into the DNA of replicating cells, summary statement
Experimental: (§1) UV Irradiation and Thymidine analog treatment: HeLa cells were grown to ˜80% confluence, culture medium was removed, cells were washed twice with PBS, and then were placed under a GE germicidal lamp emitting primarily 254-nm UV light (1 J/m^2/sec) connected with a digital timer for 20sec (20 J/m^2 in total). Cells were collected after 1 hour repair. Thymidine analogs were dissolved in sterile PBS (BrdU, EdU, CldU) or DMSO (IdU, F-ara-EdU, AmdU), and then added to cell culture medium at final concentration of 10 μM for indicated times.
(§2) In vivo excision assay: For in vivo excision assay with BrdU antibody, low molecular DNAs isolated by Hirt procedure as previously described (ref 17) were subject to immunoprecipitation with anti-BrdU antibody. For in vivo excision assay with TFIIH antibody, cells were lysed in buffer A (25 mM HEPES at pH7.9, 100 mM KCl, 12 mM MgCl2, 0.5 mM EDTA, 2 mM DTT, 12.5% glycerol, 0.5% NP-40), and excised oligonucleotides complexed with TFIIH protein were immunoprecipitated with TFIIH antibody. Purified oligonucleotides from BrdU IP or TFIIH IP were 3′ end-labeled by terminal deoxynucleotidyl transferase (TdT), α-^32P-ATP with a standard 50 mer oligonucleotide as spike internal control. After phenol-chloroform extraction and ethanol precipitation, labeled DNAs were fractionated with 12% denaturing sequencing gels.

HeLa cells [2] = experiment: Slot blot assay of thymidine analog incorporation into genomic DNA; type: cell-based, human; conditions: 10 μM thymidine analog, 24 h, anti-BrdU antibody
Experimental: Slot blot assay: HeLa cells were plated in 100 mm plates and treated with 10 μM thymidine analogs for 24 h. Genomic DNA was purified from cell pellets using QIAamp DNA mini kit (Qiagen, 51306). DNA concentrations were determined using a Qubit 3.0 fluorometer. 250 ng of each DNA was diluted with TE buffer (10 mM Tris-HCl pH8, 1 mM EDTA) to a total volume of 250 μL, then boiled at 90° C. for 10 min and cooled in ice water immediately. 250 μL cold ammonium acetate (2 M) was added to neutralize DNA, and then DNA samples were loaded onto nitrocellulose membranes using a slot blot apparatus. Membranes were transferred to a vacuum oven and baked for 1.5 h at 80° C., then blocked with 5% dried milk and incubated with either anti-BrdU antibody (1:1000) or anti-ssDNA antibody (1:5000) as loading control overnight at 4° C. After incubating with a horseradish peroxidase (HRP) labeled secondary antibody (1:10000) for 1 h, chemiluminescent signal was captured using a Bio-Rad ChemiDoc XRS imaging device.

[3] = system: nucleotide excision repair in HeLa cells; experiment: In vivo excision assay with anti-BrdU antibody immunoprecipitation; type: cell-based, human; conditions: for excised oligomers (nominal 26-mer) precipitated by anti-BrdU antibodies: 10 μM thymidine analog, 24 h, no UV
Experimental: as §1, §2

Taq DNA polymerase = Taq DNA polymerase (Thermus aquaticus, UniProt P19821); experiment: PCR of EdU-substituted genomic DNA with Taq DNA polymerase; type: biochemical; conditions: genomic DNA of cells treated with EdU for 24 hrs, CSA gene (946bp), 30 cycles
HeLa cells [4] = experiment: XR-seq of EdU excision products; type: cell-based, human; conditions: for TS/NTS ratio genome-wide: RNA Pol II transcribed genes
[5] = compared with other thymidine analogs used to study replication; cited from earlier work
NHF1 wild-type cells = experiment: In vivo excision assay (anti-BrdU IP) in wild-type NHF1 cells; type: cell-based, human; conditions: wild type NHF1, 10 μM EdU, 24 h
Description: (§3) Cell lines: NHF1 cells, telomerase-immortalized normal human fibroblast monolayers were obtained as described previously (ref 17), XPA-/-XPC-/-CSB-/- triple knock out NHF1 cells were generated using CRISPR Cas9 system with gRNAs (XPA: […] (SEQ ID NO:1); CSB: […] (SEQ ID NO:2); XPC: […] (SEQ ID NO:3)). The HeLa cell line was from the American Type Culture Collection (ATCC). NHF1 and HeLa cells were maintained in Dulbecco's modified Eagle's medium (DMEM) supplemented with 10% fetal bovine serum at 37° C. in a 5% CO2 humidified chamber.
as §2

[6] = system: XPA-/-XPC-/-CSB-/- NHF1 cells; experiment: In vivo excision assay (anti-BrdU IP) in excision repair defective NHF1 cells; type: cell-based, human; conditions: XPA-/-XPC-/-CSB-/- mutant NHF1, 10 μM EdU, 24 h
Description: as §3, §2

[7] = system: Chinese hamster ovary (CHO) AA8 cell free extract excision nuclease; experiment: In vitro excision assay with mammalian cell-free extract; type: biochemical; conditions: 140bp duplex substrates, CHO AA8 CFE, three biological replicates
Experimental: In vitro excision assay: Radiolabeled 140-bp full length undamaged, (6-4) PP, and EdU damaged substrates were prepared, and in vitro excision assay with cell-free extract from Chinese hamster ovary (CHO) AA8 cells were carried out as previously described (ref 39). Briefly, Chinese hamster ovary (CHO) AA8 cell free extract (CFE) was prepared by the method of Manley (ref 42). Linear double-stranded DNA substrates (140bp in length) were prepared with centrally located (6-4) photoproduct or EdU as described previously (ref 43). The sequence of the centrally located 12-mers was […]; SEQ ID NO:4. For the (6-4) substrate, the (6-4) lesion was between T5 and T6. Single EdU was at T6 and, double EdU lesions were at T5 and T6. Unmodified 12mer and EdU containing 12mers were purchased from Integrated DNA Technologies.
The excision reaction with AA8 CFE (75 μg) was conducted with 20 fmol of 140bp substrates, 18 mM HEPES-KOH (pH 7.9), 24 mM KCl, 2 mM MgCl2, 4 mM ATP at 30° C. for 60 minutes as described (ref 35). After the excision reaction, the mixture was incubated with 0.34% SDS and 20 µg/ml Proteinase K at 55-60° C. for 15 minutes, then DNA was extracted with phenol:chloroform:isoamyl alcohol and precipitated with ethanol, resuspended in formamide/dye mixture, and separated with a 10% sequencing gel. Quantification of the signal intensities was done by using ImageJ.

[8] = system: primary human glioblastoma cell; conditions: same dose as Temozolomide; cited from earlier work
[9] = system: an osteosarcoma and a glioblastoma cell line; conditions: cited from earlier work
[10] = in vivo; cited from earlier work
[11] = HeLa cells, 10 μM thymidine analog, 24 h

Sequence of Taq DNA polymerase (P19821 whole entry): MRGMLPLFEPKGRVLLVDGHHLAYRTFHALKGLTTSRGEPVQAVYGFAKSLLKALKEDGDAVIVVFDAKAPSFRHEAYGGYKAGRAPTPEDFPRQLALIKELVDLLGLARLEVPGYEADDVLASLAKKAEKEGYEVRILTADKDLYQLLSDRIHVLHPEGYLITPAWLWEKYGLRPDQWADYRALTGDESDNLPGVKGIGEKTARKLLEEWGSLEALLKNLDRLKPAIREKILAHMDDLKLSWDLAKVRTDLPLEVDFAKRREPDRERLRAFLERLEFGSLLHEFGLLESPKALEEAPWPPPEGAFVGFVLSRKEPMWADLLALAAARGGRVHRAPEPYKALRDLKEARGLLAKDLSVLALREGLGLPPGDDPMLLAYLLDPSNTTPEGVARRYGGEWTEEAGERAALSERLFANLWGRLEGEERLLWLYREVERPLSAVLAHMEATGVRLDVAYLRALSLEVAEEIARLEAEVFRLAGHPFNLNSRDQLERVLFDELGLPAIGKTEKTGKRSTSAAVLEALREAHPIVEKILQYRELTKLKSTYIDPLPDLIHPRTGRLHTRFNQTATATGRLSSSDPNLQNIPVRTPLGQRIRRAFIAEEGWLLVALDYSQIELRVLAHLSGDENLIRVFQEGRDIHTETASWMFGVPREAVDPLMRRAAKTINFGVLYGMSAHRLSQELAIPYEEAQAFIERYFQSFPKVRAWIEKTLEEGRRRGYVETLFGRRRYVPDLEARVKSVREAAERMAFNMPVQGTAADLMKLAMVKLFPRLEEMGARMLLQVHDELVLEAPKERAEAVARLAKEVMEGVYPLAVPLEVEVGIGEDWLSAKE

With [N-]=[N+]=NCc1cn([C@H]2C[C@H](O)[C@@H](CO)O2)c(=O)[nH]c1=O [AmdU, 5-(azidomethyl)-2′-deoxyuridine] the “excised by human nucleotide excision repair (TFIIH IP)” value [1, 11] was “only EdU is excised” and the “substrate for excision repair” value [1] was “not to be substrates for excision repair”.
For O=c1[nH]c(=O)n([C@H]2C[C@H](O)[C@@H](CO)O2)cc1Br [BrdU, 5-Bromo-2′-deoxyuridine], the “incorporation into replicating HeLa cells” value (HeLa cells [2]) was “similarly incorporated”, the “excised oligomers (nominal 26-mer) precipitated by anti-BrdU antibodies” value (shortened to “excised oligomers”) [3] was “not” and the “substrate for excision repair” value [1] was “not to be substrates for excision repair”.
For O=c1[nH]c(=O)n([C@H]2C[C@H](O)[C@@H](CO)O2)cc1Cl [CldU, 5-Chloro-2′-deoxyuridine], the “incorporation into replicating HeLa cells” value (HeLa cells [2]) was “similarly incorporated”, the “excised oligomers” value [3] was “not” and the “substrate for excision repair” value [1] was “not to be substrates for excision repair”.
In the case of C#Cc1cn([C@H]2C[C@H](O)[C@@H](CO)O2)c(=O)[nH]c1=O [EdU, 5-Ethynyl-2′-deoxyuridine], the “PCR product from EdU-substituted genomic DNA template” value (Taq DNA polymerase) is reported as “produced full-size fragments”, the “XR-seq reads over active promoter, weak promoter, strong enhancer and transcription transition region” value (HeLa cells [4]; 15 ChromHMM chromatin states, 6 h to 48 h) is reported as “relatively high” and the TS/NTS ratio genome-wide (HeLa cells [4]; 6 h EdU treatment) is reported as about 2.5. The TS/NTS ratio genome-wide (HeLa cells [4]; 48 h EdU treatment) was about 1.2, the “time at which TS/NTS repair ratio peaks” value (HeLa cells [4]; HACD3, DHFR, and MSH3 genes) was 6 h and the “peak of length distribution of excision products” value (HeLa cells [4]; anti-TFIIH IP, XR-seq) was 25-27 nucleotides. The “repair of EdU at DNase hypersensitivity peaks” value (HeLa cells [4]; gene and intergenic regions) was “significantly enriched”, the “incorporation into replicating HeLa cells” value (HeLa cells [2]) was “similarly incorporated” and the toxicity [5] was “highly toxic”. The “time of peak level of excised EdU-containing fragments” value ([3]; 10 μM EdU for 3 to 48 hrs) was 24 h, the “length of excised oligonucleotides under yellow light and ordinary room light” value ([3]; 10 μM EdU, 24 hours, both light conditions) was 22-30 nts and the “excised oligomers” value [3] was “precipitated oligomers in the form of nominal 26-mer”. The “time that EdU removal continues after pulse labeling” value ([3]; 4 hours EdU, then EdU-free medium, up to 12 hrs) was “at least 12 hrs”, the excision product (NHF1 wild-type cells) was “excision product seen” and the “length of excision products isolated with anti-TFIIH antibodies” value [1, 11] was 25-32 nucleotide. The “substrate for excision repair” value [1] was “substrate for excision repair”, the excision product [6] was “no excision product” and the “in vitro excision (percentage of excision relative to total amount of substrate)” value [7] was “efficient substrate for the mammalian excision nucleases”. For the same compound, the “apoptosis relative to Temozolomide” value [8] was 3-5 fold, the “strand breaks relative to Temozolomide” value [8] was 3-5 fold and the “suppressing cell proliferation compared with BrdU” value [9] was “outperform BrdU”. For the same compound, the “crossing of the blood-brain-barrier” value [10] was “crosses the blood-brain-barrier”.
For C#Cc1cn([C@@H]2O[C@H](CO)[C@@H](O)[C@@H]2F)c(=O)[nH]c1=O [F-ara-EdU, (2′S)-2-Deoxy-2-fluoro-5-ethynyluridine], the “excised by human nucleotide excision repair (TFIIH IP)” value [1, 11] was “only EdU is excised” and the “substrate for excision repair” value [1] was “not to be substrates for excision repair”.
With O=c1[nH]c(=O)n([C@H]2C[C@H](O)[C@@H](CO)O2)cc1I [IdU, 5-Iodo-2′-deoxyuridine] the “incorporation into replicating HeLa cells” value (HeLa cells [2]) was “similarly incorporated”, the “excised oligomers” value [3] was “not” and the “substrate for excision repair” value [1] was “not to be substrates for excision repair”.
